Laboratory results: PubChem BioAssay (NCI)
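Each compound was tested at five concentrations against cells in 96-well plates for 48 hours. GI50: concentration for 50% inhibition of growth. TGI is the concentration that stops growth completely.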

Each molecule was assayed on LOX IMVI melanoma (assay: NCI-60 cell line screen, 48 h).
For `CNC(C)[C@H]1CCC2C3CC=C4C(=O)[C@@H](NC(=O)C=C(C)C)CC[C@]4(C)C3CC[C@@]21C` (stereo not given in full), the GI50 was 1.35 µM and the TGI was 2.98 µM. `Clc1nc(Cl)c2ncn(Cc3ccccc3Cn3cnc4c(Cl)nc(Cl)nc43)c2n1` gave a GI50 of 1.16 µM and a TGI of 2.65 µM. In the case of `C=C1C(O)C2C(=C(C)C13CC3)C(=O)C(C)(C)C2OC` (stereo not given), the GI50 is reported as over 100 µM and the TGI is reported as over 100 µM. `CS(=O)(=O)CS(=O)(=O)OCCCl` gave a TGI of 497 µM. `CC(C)(C)c1cc(C(=O)/C=C/c2ccc(C(=O)O)cc2)cc(C(C)(C)C)c1` gave a TGI of 8.54 µM. Molecule `COc1ccc(-c2ccc(NNC(=O)c3ccc(F)cc3)nn2)cc1OC` has a GI50 of 67.6 µM and a TGI of over 100 µM. Molecule `C=C1C(=O)OC2C1CC(OC(C)=O)/C(C)=C/CCC1(C)OC21` (stereo not given) has a TGI of over 100 µM. `c1ccc2c(c1)c1ccccc1c1ccccc21` was tested, and the GI50 was over 100 µM and the TGI was over 100 µM. `NC(=O)CNc1ccc([As]=[As]c2ccc(NCC(N)=O)cc2)cc1` (stereo not given) gave a GI50 of 6.03 µM and a TGI of 23.8 µM.

The molecules below were run on MCF7 breast (assay: NCI-60 cell line screen, 48 h).
Work on `COc1ccc(-c2nn(-c3cccc(Cl)c3)cc2-c2nc(N)[nH]c(=O)c2C#N)cc1` yielded a GI50 of 3.54 µM and a TGI of 28.5 µM. For `COC(=O)C(=O)CC(=O)c1cccc(OC)c1`, the TGI was over 100 µM. For `COc1cc2c3c(n(CCCN(CCO)CCO)c(=O)c2cc1OC)-c1cc2c(cc1C3=O)OCO2`, the GI50 was under 0.01 µM and the TGI was over 24.7 µM. `O=C(CCN1CCOCC1)Nc1cccc(-n2cc(-c3ccncc3)c(-c3ccc(Cl)c(O)c3)n2)c1` was tested, and the GI50 was 0.634 µM and the TGI was 11.9 µM. Work on `C=C(C)[C@@H]1CC[C@]2(C)[C@H](CC[C@@H]3[C@@H]([C@@](C)(O)CCC=C(C)C)CC[C@]32C)[C@@]1(C)CCC(=O)O` yielded a GI50 of 19.7 µM and a TGI of 49.3 µM. `Cn1cc(S(=O)(=O)N2CCC3=Cc4c(cnn4-c4ccc(F)cc4)C[C@]3(C(=O)c3cc(C(F)(F)F)ccn3)C2)cn1` was tested, and the GI50 was 6.34 µM and the TGI was over 100 µM. Work on `c1ccc(NCCSc2nc3ccccc3s2)cc1` yielded a TGI of over 100 µM. `Oc1ccc(Oc2cnc3ccccc3n2)cc1` gave a GI50 of over 100 µM and a TGI of over 100 µM. `Cc1ccc2occ/c(=N\Nc3ccccc3)c2c1` gave a TGI of over 100 µM. Work on `CC(=O)NC1CONC1=O` (stereo not given) yielded a TGI of over 100 µM. Work on `Oc1ccc(N=Nc2nccs2)c(O)c1` yielded a GI50 of 3.06 µM and a TGI of 15.1 µM. With `COc1cc(/C=C/C(=O)Oc2ccccc2)ccc1C(=O)O/C=C/c1ccccc1` the TGI was over 100 µM. `COc1ccc2c(c1)C(C)Cc1c(ncnc1-n1cnc3ccccc31)N2C` (stereo not given) showed a GI50 of 0.313 µM and a TGI of 14 µM. With `CC(Cl)CN1c2ccccc2Sc2ccc(Cl)cc21` (stereo not given) the TGI was over 10 µM. In the case of `NCCCn1c2c(c3ccccc3c1=O)C(=O)c1ccccc1-2`, the GI50 is reported as 0.0728 µM and the TGI is reported as 18 µM. Molecule `O=C1c2ccccc2C(=O)c2c(NCCN=Cc3ccccc3O)cccc21` has a GI50 of 1.57 µM and a TGI of 5.27 µM. Molecule `Oc1ccc(/C=C/c2cc(O)cc3c2C(c2cc(O)cc(O)c2)C(c2ccc(O)c(O)c2)O3)cc1` (stereo not given) has a TGI of over 100 µM. `COc1ccc(/C=C/c2cnccn2)cc1OC` gave a TGI of over 10 µM. In the case of `CCc1nc(Cl)c(Cl)c(Cl)n1`, the TGI is reported as over 100 µM. For `O=[N+]([O-])c1ccc(Sc2c3ccccc3nc3ccccc23)cn1`, the TGI was 19.1 µM. `COc1cc2c3c(n(CCCN(C)CCO)c(=O)c2cc1OC)-c1cc2c(cc1C3=O)OCO2` showed a GI50 of over 28.3 µM and a TGI of over 100 µM. `C=CCn1c(SCC(=O)Nc2ccc(C(=O)/C=C/c3cc(OC)c(OC)c(OC)c3)cc2)nnc1-c1ccc(OC)cc1` gave a GI50 of 0.246 µM and a TGI of 3.14 µM. `CNC(C)[C@H]1CCC2C3CC=C4C(=O)[C@@H](NC(=O)C=C(C)C)CC[C@]4(C)C3CC[C@@]21C` (stereo not given in full) was tested, and the GI50 was 1.7 µM and the TGI was 5.98 µM. `Clc1nc(Cl)c2ncn(Cc3ccccc3Cn3cnc4c(Cl)nc(Cl)nc43)c2n1` was tested, and the GI50 was 0.922 µM and the TGI was 4.99 µM. Work on `C=C1C(O)C2C(=C(C)C13CC3)C(=O)C(C)(C)C2OC` (stereo not given) yielded a GI50 of 69.4 µM and a TGI of over 100 µM. For `CS(=O)(=O)CS(=O)(=O)OCCCl`, the TGI was 1420 µM. Molecule `CC(C)(C)c1cc(C(=O)/C=C/c2ccc(C(=O)O)cc2)cc(C(C)(C)C)c1` has a TGI of 14.8 µM. Molecule `COc1ccc(-c2ccc(NNC(=O)c3ccc(F)cc3)nn2)cc1OC` has a GI50 of 93.4 µM and a TGI of over 100 µM. Work on `C=C1C(=O)OC2C1CC(OC(C)=O)/C(C)=C/CCC1(C)OC21` (stereo not given) yielded a TGI of over 100 µM.
